Results taken from patent US20240016788A1, “PHARMACEUTICAL COMPOSITION FOR PREVENTING OR TREATING DIABETIC AND POSTMENOPAUSAL OSTEOPOROSIS, CONTAINING ADIPORON” (PnP Biopharm Co., Ltd., priority 2020, published 2024).

Assays:
Assay type in all cases: in vivo
[1] = test system: non-diabetic db/m mice; experiment: Body weight, blood biochemistry and 24-hour urine oxidative stress in non-diabetic db/m mice; settings: adiporon 30 mg/kg/day in diet for 4 weeks, mean ± SD
Experimental: (§1) A leptin receptor-defective type 2 diabetic animal model (db/db mice) and a normal control group (db/m mice) were used, and the experiment was performed by dividing into 4 groups as follows: non-diabetic control group (dm cont, n=8), non-diabetic adiporon treatment group (dm+AdipoR, n=8), diabetic control group (db cont, n=8) and diabetic adiporon treatment group (db+AdipoR, n=8). The control group was fed a normal diet, and the adiporon treatment group was fed a diet comprising adiporon (30 mg/kg/day) for 4 weeks from 16 weeks of age. During the experiment, body weight was measured every week, fasting blood glucose was measured using an Accu-Chek meter (Roche Diagnostics, St. Louis, MO) every 2 weeks after blood was collected from the tail vein, and glycated hemoglobin (HbA1c) was measured every 4 weeks using a […] automatic analyzer (Bayer healthcare LLC, IN) after blood was collected from the tail vein. The temperature and humidity of the breeding room were maintained at 20˜25° C. and 50˜60%, respectively, and the lights were turned on and off at 12-hour intervals. In both experiments, blood collected from each mouse was allowed to stand at room temperature for 30 minutes, and then centrifuged at 3000 rpm for 15 minutes to obtain serum. Blood levels of tartrate-resistant acid phosphatase (TRAP/ACP5) and osterocalcin concentration were measured by ELISA. In addition, 8-hydroxy-deoxyguanosine, a DNA damage marker caused by oxidative stress, and isoprostane, a marker of oxidative stress caused by lipid peroxidation caused by free fatty acids, and deoxypyridinoline (DPP), which indicates the function of osteoclasts, were measured in 24-hour urine concentrations by ELISA method.

[2] = test system: type 2 diabetic db/db mice; experiment: Immunofluorescence staining and western blot of bone tissue, db/db mice; settings: adiporon 30 mg/kg/day, 4 weeks
Experimental: A leptin receptor-defective type 2 diabetic animal model (db/db mice) and a normal control group (db/m mice) were used, and the experiment was performed by dividing into 4 groups as follows: non-diabetic control group (dm cont, n=8), non-diabetic adiporon treatment group (dm+AdipoR, n=8), diabetic control group (db cont, n=8) and diabetic adiporon treatment group (db+AdipoR, n=8).
The control group was fed a normal diet, and the adiporon treatment group was fed a diet comprising adiporon (30 mg/kg/day) for 4 weeks from 16 weeks of age. During the experiment, body weight was measured every week, fasting blood glucose was measured using an Accu-Chek meter (Roche Diagnostics, St. Louis, MO) every 2 weeks after blood was collected from the tail vein, and glycated hemoglobin (HbA1c) was measured every 4 weeks using a […] automatic analyzer (Bayer healthcare LLC, IN) after blood was collected from the tail vein. The temperature and humidity of the breeding room were maintained at 20˜25° C. and 50˜60%, respectively, and the lights were turned on and off at 12-hour intervals.
After removing tissues of the femur and L5 lumbar vertebrae, some of them were fixed in 10% formalin for immunostaining and decalcified. Thereafter, after neutralization with 0.5M Phosphate buffer (pH 7.4), washing, and embedding in paraffin. Tissue sections were cut to a thickness of 5 μm, and hematoxylin and eosin staining (H&E staining), trichrome staining, and Safranin O staining were performed. In bone tissue, double immunofluorescence staining method was performed using anti-adiponectin receptor 1/2 antibody, anti-perilipin-1 antibody, anti-RANKL antibody, anti-TNF-α antibody, and ApopTag Fluorescein In Situ Apoptosis Detection Kit (Chemicon International, Temecula, CA) and expression was observed using a confocal microscope.
Protein was extracted using Pro-Prep Protein Extraction Solution (Intron Biotechnology, Gyeonggi-Do, Korea), and SDS-PAGE (sodium dodecyl sulfate-polyacrylamide gel electrophoresis) was performed. The separated protein was transferred to a nitrocellulose membrane (Amersham Co., Buckinghamshire, England) and treated with Tris buffered saline (in TBS-T: 0.1% Tween-20 in Tris buffer saline, pH 7.5) containing 3% skim milk. After blocking for an hour, the blots were reacted in adiponectin receptor 1/2, total AMPK, phospho-Thr172AMPK, PGC-1α, Nrf-2, SOD1/2, NQO1, HO-1, NOX4, NF-κB and β-actin primary antibody solution, washing, reacting with a secondary antibody against each primary antibody, and then photosensitizing through ECL (Pierce, Rockford IL) to confirm the band. The expression level of each protein was normalized according to β-actin.

[3] = test system: type 2 diabetic db/db mice; experiment: Serum ACP5/TRAP, osteocalcin and urine deoxypyridinoline by ELISA, db/db mice; settings: adiporon 30 mg/kg/day, 4 weeks
Experimental: as §1

[4] = test system: ovariectomized C57BL/6 mice; experiment: Serum ACP5/TRAP, osteocalcin and urine deoxypyridinoline by ELISA, ovariectomized mice; settings: for Increased concentration of deoxypyridinoline in urine: P<0.05
Experimental: 7 weeks after ovariectomization or sham surgery of 7-week-old C57BL/6 mice, normal feed group (adiporon non-administered group; control group) administration group, 2.5 mg/kg day or 25 mg/kg day, respectively Feed comprising adiporon was consumed for 6 weeks from 14 weeks of age. Body weight was measured every week during the experiment period, and the experiment was conducted after 6 weeks of administration. In both experiments, blood collected from each mouse was allowed to stand at room temperature for 30 minutes, and then centrifuged at 3000 rpm for 15 minutes to obtain serum. Blood levels of tartrate-resistant acid phosphatase (TRAP/ACP5) and osterocalcin concentration were measured by ELISA. In addition, 8-hydroxy-deoxyguanosine, a DNA damage marker caused by oxidative stress, and isoprostane, a marker of oxidative stress caused by lipid peroxidation caused by free fatty acids, and deoxypyridinoline (DPP), which indicates the function of osteoclasts, were measured in 24-hour urine concentrations by ELISA method.

[5] = adiporon 2.5 or 25 mg/kg day, dose not distinguished, ELISA

Cl.O=C(COc1ccc(C(=O)c2ccccc2)cc1)NC1CCN(Cc2ccccc2)CC1 [adiporon]
Blood glucose [1]: 136 ± 8 mg/dL | HbA1c [1]: 3.8 ± 0.2% | Serum NEFA [1]: 0.67 ± 0.23 mEq/I | Serum TC [1]: 2.5 ± 0.4 mmol/L | Serum TG [1]: 1.4 ± 0.2 mmol/L | Serum adiponectin [1]: 11214 ± 1214 ng/mL | Urinary 8-OHDG [1]: 36.5 ± 14.5 ng/24 h | Urinary isoprostane [1]: 4.3 ± 2.2 ng/24 h | Activation of adiponectin-receptor 1-AMPK ([2]; ilium (femur), db/db mice): increased | Decreased expression of adiponectin-receptor 1/2 (double immunofluorescence staining) ([2]; ilium (femur), db/db mice): restored | Expression of PGC1α ([2]; ilium (femur), db/db mice): increased | Expression of adiponectin-receptor 2-PPARα ([2]; ilium (femur), db/db mice): increased | Expression of antioxidant enzymes (Nrf2, NQO1, HO-1, SOD1, SOD2) ([2]; ilium (femur), db/db mice): normalized | Expression of oxidative stress markers (NOX4, NFkB) ([2]; ilium (femur), db/db mice): normalized | Increase in apoptosis (TUNEL staining-positive) ([2]; ilium (femur), db/db mice): restored | Increase in inflammatory response (TNF-α) ([2]; ilium (femur), db/db mice): restored | Increase of adipocytes (perilipin-1 immunofluorescent staining) ([2]; ilium (femur), db/db mice): restored | Increased expression of RANKL ([2]; ilium (femur), db/db mice): restored | Activation of adiponectin-receptor 1-AMPK ([2]; lumbar vertebrae 5, db/db mice): increased | Decreased expression of adiponectin-receptor 1/2 (double immunofluorescence staining) ([2]; lumbar vertebrae 5, db/db mice): reversed | Expression of PGC1α ([2]; lumbar vertebrae 5, db/db mice): increased | Expression of adiponectin-receptor 2-PPARα ([2]; lumbar vertebrae 5, db/db mice): increased | Expression of antioxidant enzymes (Nrf2, NQO1, HO-1, SOD1, SOD2) ([2]; lumbar vertebrae 5, db/db mice): normalized | Expression of oxidative stress markers (NOX4, NFkB) ([2]; lumbar vertebrae 5, db/db mice): normalized | Increase in apoptosis (TUNEL staining-positive) ([2]; lumbar vertebrae 5, db/db mice): restored | Increase in inflammatory response (TNF-α) ([2]; lumbar vertebrae 5, db/db mice): restored | Increase of adipocytes (perilipin-1 immunofluorescent staining) ([2]; lumbar vertebrae 5, db/db mice): restored | Increased expression of RANKL ([2]; lumbar vertebrae 5, db/db mice): restored | Decreased serum ACP5/TRAP concentration ([3]; ELISA): restored | Decreased serum osteocalcin concentration ([3]; ELISA): restored | Increased concentration of deoxypyridinoline in urine ([3]; P<0.001): reversed | Increased concentration of deoxypyridinoline in urine ([4]; adiporon 2.5 mg/kg day vs not administered): significantly reduced | Increased concentration of deoxypyridinoline in urine ([4]; adiporon 25 mg/kg day vs not administered): significantly reduced | Decreased serum osteocalcin concentration [4, 5]: reversed | Serum ACP5/TRAP concentrations [4, 5]: no such change
